# PubChem BioAssay AID1053154 (Broad Institute, 2014)
# Tested on: HepG2, simvastatin, LDLR mRNA qPCR, 6 h
# Assay: statin-induced LDLR expression modulation – cell-based, HepG2, RT-PCR, simvastatin, cherry-pick, mechanism study for Trib1 inducer project, late-stage follow-up (AID 1053154)
# Details: active compounds read high
row,SMILES,fold change
1,CN1C(=O)c2cc(NC(=O)c3ccc(C(F)(F)F)cc3)ccc2OC[C@@H]2O[C@H](CC(=O)NC3Cc4ccccc4C3)CC[C@@H]21,2
2,CN1C(=O)c2cc(NC(=O)c3ccc(C(F)(F)F)cc3)ccc2OC[C@@H]2O[C@@H](CC(=O)NC3Cc4ccccc4C3)CC[C@@H]21,10
